Data: patent US20120149625A1, “Detergent Composition” (Novozymes A/S, priority 2009, published 2012)
Read-outs that look alike come from different tables or passages of the source. Residues, ends and D or L forms follow the SMILES beside them. *: point of attachment. Cbz = O=C(OCc1ccccc1)*

Assays:
Savinase [1] = target: T1, Savinase (Lederbergia lenta, UniProt P29600); assay: AMSA laundry detergency, powder detergent, various inhibitors (Example 1); details: 30 nM protease, 40° C., 15° dH
T1 sequence (P29600 1-269): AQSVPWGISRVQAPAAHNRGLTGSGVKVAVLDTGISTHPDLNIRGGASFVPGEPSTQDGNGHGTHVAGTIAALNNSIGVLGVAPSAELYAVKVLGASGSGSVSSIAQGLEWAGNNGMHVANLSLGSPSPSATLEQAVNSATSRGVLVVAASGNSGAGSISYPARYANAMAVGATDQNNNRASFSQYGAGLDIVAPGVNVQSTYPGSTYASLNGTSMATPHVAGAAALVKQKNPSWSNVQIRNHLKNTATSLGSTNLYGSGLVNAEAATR

Savinase [2] = target: T1, Savinase; assay: biochemical; details: substrate SucAAPF-pNA, 0,1M TRIS pH 9.0, 25° C., [E]0=6E-09 M, read-out: inhibition constant Ki
Alcalase [3] = target: T2, Alcalase (Bacillus licheniformis, UniProt P00780); assay: AMSA laundry detergency, powder detergent, various inhibitors (Example 1); details: 30 nM protease, 40° C., 15° dH, inhibitor dosage 5, None = 100%
T2 construct: purchased Novozymes A/S
T2 sequence (P00780 106-379): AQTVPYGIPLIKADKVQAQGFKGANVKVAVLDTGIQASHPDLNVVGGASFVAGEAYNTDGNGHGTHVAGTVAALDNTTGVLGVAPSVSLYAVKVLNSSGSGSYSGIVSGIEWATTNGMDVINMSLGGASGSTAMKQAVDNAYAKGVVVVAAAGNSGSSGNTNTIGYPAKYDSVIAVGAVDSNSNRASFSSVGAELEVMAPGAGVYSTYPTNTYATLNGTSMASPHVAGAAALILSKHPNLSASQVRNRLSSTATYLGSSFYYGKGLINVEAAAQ

Savinase [4] = target: T1, Savinase; assay: AMSA laundry detergency, laundry liquid model detergent, various inhibitors (Example 2); details: 30 nM Savinase, 20° C., 15° dH, inhibitor dosering 5, None = 100%
Experimental: Model detergents and test materials for laundry were as follows:
After washing the textiles were flushed in tap water and dried.
Detergency was determined with various inhibitors in the laundry liquid model detergent with 30 nM protease (Savinase). Washing was done at 20° C. and water hardness 15° dH with test swatches EMPA117EH.

Savinase [5] = target: T1, Savinase; assay: Washing test with protease and inhibitor at various molar ratios (Example 4); details: 20° C., 15° dH
Experimental: Washing tests were made in detergents with a protease and an inhibitor. Washing conditions were 20 minutes washing at 20° C. and 15° dH. […] The inhibitor was inhibitor Z-GAY-H at various molar ratios. The results are shown as detergency with the inhibitor relative to detergency at the same conditions without the inhibitor:
The detergent was a powder detergent with the following composition at 2.5 g/L.
20.05 g Na-citrate dehydrate
The liquid detergent described under the AMSA assay was used.
The powder detergent described under the AMSA assay was used.

Alcalase [6] = target: T2, Alcalase; assay: as above; details: 30 nM Alcalase, 20° C., 15° dH
Savinase variant S99SE = Savinase variant S99SE (Lederbergia lenta, UniProt P29600, INS97E); details: Powder Detergent 2 at 2.5 g/L, 30 nM Savinase variant S99SE, 20° C., 15° dH
[7] = target: Savinase variant Y167A + R170S + A194P (Lederbergia lenta, UniProt P29600, A188P/R164S/Y161A); details: Powder Detergent 2 at 2.5 g/L, 30 nM Savinase variant Y167A + R170S + A194P, 20° C., 15° dH
Protease 10R = assay: Washing test in commercial liquid detergents (Example 4); details: Liquid detergent Commercial 1; inhibitor:protease molar ratio 5:1; 20 min, 20° C., 15° dH
Experimental: (§1) Washing tests were made in detergents with a protease and an inhibitor. Washing conditions were 20 minutes washing at 20° C. and 15° dH. The protease was Savinase at 30 nM. The inhibitor was inhibitor Z-GAY-H at various molar ratios. The results are shown as detergency with the inhibitor relative to detergency at the same conditions without the inhibitor:
(§2) Two commercial liquid detergents purchased in England were tested with inhibitor:protease molar ratio of 5:1. Protease 10R is described in WO 88/03947. Protease PD138 is described in […]

Protease PD138 = assay: as above; details: Liquid detergent Commercial 1; inhibitor:protease molar ratio 5:1; 20 min, 20° C., 15° dH
Experimental: as §1, §2

[8] = inhibitor:protease molar ratio 500, None = 100%
[9] = molar ratio not given, None = 100%
[10] = inhibitor:protease molar ratio 5, None = 100%

Sequence of Savinase variant Y167A + R170S + A194P (P29600 whole entry Y161A/R164S/A188P): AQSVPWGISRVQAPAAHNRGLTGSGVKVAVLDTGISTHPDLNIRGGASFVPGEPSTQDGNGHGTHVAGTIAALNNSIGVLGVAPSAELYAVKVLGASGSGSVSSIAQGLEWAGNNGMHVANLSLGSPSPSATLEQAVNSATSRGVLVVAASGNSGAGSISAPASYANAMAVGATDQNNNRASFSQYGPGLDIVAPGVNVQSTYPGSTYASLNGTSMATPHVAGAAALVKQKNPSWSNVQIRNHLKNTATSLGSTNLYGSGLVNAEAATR
Sequence of Savinase variant S99SE (P29600 other isoform, or with tags, fused parts or gaps INS97E): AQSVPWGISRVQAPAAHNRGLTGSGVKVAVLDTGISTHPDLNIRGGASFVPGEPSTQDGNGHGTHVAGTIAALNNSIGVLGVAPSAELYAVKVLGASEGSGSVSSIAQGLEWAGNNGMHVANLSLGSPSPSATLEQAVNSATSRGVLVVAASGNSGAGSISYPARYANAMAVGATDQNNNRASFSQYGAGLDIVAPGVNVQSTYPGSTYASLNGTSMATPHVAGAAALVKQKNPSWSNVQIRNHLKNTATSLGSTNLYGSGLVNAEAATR

## O=Cc1ccc(B(O)O)cc1 [Inhibitor 4-FPBA, 4-formyl-phenyl-boronic acid]
Savinase [1]; [8]
  CS-37 % performance: 128%
  EMPA117EH % performance: 107%
Savinase [1]; [9]
  CS-37 % performance: 137%
  EMPA117EH % performance: 111%

## C[C@H](NC(=O)CNC(=O)OCc1ccccc1)C(=O)N[C@H](C=O)Cc1ccc(O)cc1 [Z-GAY-H] (Cbz-Gly-Ala-Tyr-aldehyde)
Savinase [2]
  Ki: 7.4 nM
Savinase [1]; [10]
  CS-37 % performance: 242%
  EMPA117EH % performance: 117%
Alcalase [3]
  CS-37 % performance: 147%
  EMPA117EH % performance: 108%
Savinase [4]
  EMPA117EH % performance increase: 114%
Savinase [5]; Liquid Detergent (AMSA model), 30 nM Savinase, molar ratio 1.5
  detergency with the inhibitor relative to without: 114%
Savinase [5]; Liquid Detergent (AMSA model), 30 nM Savinase, molar ratio 3
  detergency with the inhibitor relative to without: 109%
Savinase [5]; Liquid Detergent (AMSA model), 30 nM Savinase, molar ratio 5
  detergency with the inhibitor relative to without: 108%
Savinase [5]; Powder Detergent 1 (AMSA model), 10 nM Savinase, molar ratio 0.5
  detergency with the inhibitor relative to without: 112%
Savinase [5]; Powder Detergent 1 (AMSA model), 10 nM Savinase, molar ratio 1
  detergency with the inhibitor relative to without: 108%
Savinase [5]; Powder Detergent 1 (AMSA model), 10 nM Savinase, molar ratio 1.5
  detergency with the inhibitor relative to without: 111%
Savinase [5]; Powder Detergent 1 (AMSA model), 10 nM Savinase, molar ratio 2
  detergency with the inhibitor relative to without: 121%
Savinase [5]; Powder Detergent 1 (AMSA model), 10 nM Savinase, molar ratio 3
  detergency with the inhibitor relative to without: 118%
Savinase [5]; Powder Detergent 1 (AMSA model), 10 nM Savinase, molar ratio 5
  detergency with the inhibitor relative to without: 118%
Savinase [5]; Powder Detergent 1 (AMSA model), 10 nM Savinase, molar ratio 10
  detergency with the inhibitor relative to without: 122%
Savinase [5]; Powder Detergent 1 (AMSA model), 10 nM Savinase, molar ratio 15
  detergency with the inhibitor relative to without: 116%
Savinase [5]; Powder Detergent 1 (AMSA model), 10 nM Savinase, molar ratio 20
  detergency with the inhibitor relative to without: 104%
Savinase [5]; Powder Detergent 1 (AMSA model), 10 nM Savinase, molar ratio 30
  detergency with the inhibitor relative to without: 101%
Savinase [5]; Powder Detergent 1 (AMSA model), 10 nM Savinase, molar ratio 50
  detergency with the inhibitor relative to without: 95%
Savinase [5]; Powder Detergent 1 (AMSA model), 30 nM Savinase, molar ratio 0.5
  detergency with the inhibitor relative to without: 106%
Savinase [5]; Powder Detergent 1 (AMSA model), 30 nM Savinase, molar ratio 1
  detergency with the inhibitor relative to without: 105%
Savinase [5]; Powder Detergent 1 (AMSA model), 30 nM Savinase, molar ratio 1.5
  detergency with the inhibitor relative to without: 107%
Savinase [5]; Powder Detergent 1 (AMSA model), 30 nM Savinase, molar ratio 2
  detergency with the inhibitor relative to without: 108%
Savinase [5]; Powder Detergent 1 (AMSA model), 30 nM Savinase, molar ratio 3
  detergency with the inhibitor relative to without: 105%
Savinase [5]; Powder Detergent 1 (AMSA model), 30 nM Savinase, molar ratio 5
  detergency with the inhibitor relative to without: 110%
Savinase [5]; Powder Detergent 1 (AMSA model), 30 nM Savinase, molar ratio 10
  detergency with the inhibitor relative to without: 107%
Savinase [5]; Powder Detergent 1 (AMSA model), 30 nM Savinase, molar ratio 15
  detergency with the inhibitor relative to without: 99%
Savinase [5]; Powder Detergent 1 (AMSA model), 30 nM Savinase, molar ratio 20
  detergency with the inhibitor relative to without: 95%
Savinase [5]; Powder Detergent 1 (AMSA model), 30 nM Savinase, molar ratio 30
  detergency with the inhibitor relative to without: 83%
Savinase [5]; Powder Detergent 1 (AMSA model), 30 nM Savinase, molar ratio 50
  detergency with the inhibitor relative to without: 80%
Savinase [5]; Powder Detergent 2 at 2.5 g/L, 30 nM Savinase, molar ratio 1.5
  detergency with the inhibitor relative to without: 132%
Savinase [5]; Powder Detergent 2 at 2.5 g/L, 30 nM Savinase, molar ratio 3
  detergency with the inhibitor relative to without: 140%
Savinase [5]; Powder Detergent 2 at 2.5 g/L, 30 nM Savinase, molar ratio 5
  detergency with the inhibitor relative to without: 134%
Alcalase [6]; Liquid Detergent (AMSA model), molar ratio 1.5
  detergency with the inhibitor relative to without: 145%
Alcalase [6]; Liquid Detergent (AMSA model), molar ratio 3
  detergency with the inhibitor relative to without: 169%
Alcalase [6]; Liquid Detergent (AMSA model), molar ratio 5
  detergency with the inhibitor relative to without: 146%
Alcalase [6]; Liquid Detergent (AMSA model), molar ratio 7.5
  detergency with the inhibitor relative to without: 149%
Alcalase [6]; Liquid Detergent (AMSA model), molar ratio 10
  detergency with the inhibitor relative to without: 147%
Alcalase [6]; Powder Detergent 2 at 2.5 g/L, molar ratio 3
  detergency with the inhibitor relative to without: 103%
Alcalase [6]; Powder Detergent 2 at 2.5 g/L, molar ratio 5
  detergency with the inhibitor relative to without: 113%
Alcalase [6]; Powder Detergent 2 at 2.5 g/L, molar ratio 7.5
  detergency with the inhibitor relative to without: 116%
Alcalase [6]; Powder Detergent 2 at 2.5 g/L, molar ratio 10
  detergency with the inhibitor relative to without: 119%
Savinase variant S99SE; molar ratio 1.5
  detergency with the inhibitor relative to without: 100%
Savinase variant S99SE; molar ratio 3
  detergency with the inhibitor relative to without: 103%
Savinase variant S99SE; molar ratio 5
  detergency with the inhibitor relative to without: 106%
[7]; molar ratio 1.5
  detergency with the inhibitor relative to without: 100%
[7]; molar ratio 3
  detergency with the inhibitor relative to without: 107%
[7]; molar ratio 5
  detergency with the inhibitor relative to without: 107%
Protease 10R
  Detergency increase: 107%
Protease PD138
  Detergency increase: 107%
